Results on 9 compounds are retold here after ChEMBL document CHEMBL1201862, “PubChem BioAssay data set” (2004).

In general, GI50 refers to the concentration that inhibits growth by half.

Common to all, as to test: DTP human tumour cell line panel, 48 h
In test [1] the test system is HT-29.
Test [2] concerns EKVX.
The test system of test [3] is SF-268.
The subject of test [4] is M14.
The test system of test [5] is M19-MEL.
Test [6] relates to OVCAR-4.
Test [7] relates to SW-620.
Test [8] has as its system NCI-H460.
Test [9] relates to COLO 205.
Test [10] deals with SNB-19.
In test [11] the test system is TK-10.
For test [12], the system named is A498.
Test [13] relates to SF-295.
In test [14] the test system is SK-MEL-5.
For test [15], the system named is UACC-62.
Test [16] relates to OVCAR-8.
The subject of test [17] is HCT-15.

Molecules are shown by their SMILES.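 Compound exposure: 48 hours, 5 concentrations, 96-well plates. GI50: concentration for 50% inhibition of growth.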 The source made the active and inactive calls. Rule as the data show it: active = GI50 up to about 1.1 µM and inactive = higher.

For `CSC(C1c2ccccc2N(c2ccc(C)cc2)c2[nH]c(=O)n(C)c(=O)c21)S(=O)(=O)c1ccc(C)cc1` (stereo not drawn), the GI50 was > 100 µM (inactive) in test [1]; > 100 µM (inactive) in test [2]; > 100 µM (inactive) in test [3]; > 100 µM (inactive) in test [4]; > 100 µM (inactive) in [5]; 97.7 µM (inactive) in test [6]. Further, the GI50 in test [7], in test [8], in [9], in test [10], in test [11] and in [12] was > 100 µM (inactive) throughout. Besides, the GI50 in test [13], in test [14], in test [15] and in test [16] was > 100 µM (inactive) each time.

Consider `C[N+]1(CCNP(=S)(NCC[N+]2(C)Cc3c(ccc4c3OCO4)C3C2c2cc4c(cc2C[C@@H]3O)OCO4)NCC[N+]2(C)Cc3c(ccc4c3OCO4)C3C2c2cc4c(cc2C[C@@H]3O)OCO4)Cc2c(ccc3c2OCO3)C2C1c1cc3c(cc1C[C@H]2O)OCO3` (stereo partly drawn), for which the GI50 in test [1], in test [2], in test [3], in test [4], in test [5] and in test [6] was < 0.00191 µM (active) each time. The GI50 in test [7] was < 0.00191 µM (active); in [8], < 0.00191 µM (active); in test [9] it was < 0.00191 µM (active); in test [10] it was < 0.00191 µM (active); in test [17], less than 0.00191 µM; in [11], < 0.00191 µM (active). Further, the GI50 in test [12], in test [13], in test [14], in test [15] and in test [16] was < 0.00191 µM (active) in each case.

On to `CC(N)Cc1cccc(C(F)(F)F)c1` (stereo not drawn), for which the GI50 in test [1], in test [2], in test [3], in test [4], in test [5] and in [6] was > 100 µM (inactive) in each case. Also, the GI50 was > 100 µM (inactive) in test [7]; > 100 µM (inactive) in [8]; > 100 µM (inactive) in test [9]; > 100 µM (inactive) in test [10]; more than 100 µM in test [17]; > 100 µM (inactive) in [11]. Also, the GI50 in test [12], in test [13], in test [14], in [15] and in test [16] was > 100 µM (inactive) throughout.

`CCCCCCCCCCCCCCCCCC(CCCCCCCCCCCCCCCCC)OP(=O)(O)O`: the GI50 in test [1], in test [2], in test [3], in test [4], in [5] and in test [6] was > 100 µM (inactive) each time. In addition, the GI50 is > 100 µM (inactive) in [7]; > 100 µM (inactive) in test [8]; > 100 µM (inactive) in test [9]; > 100 µM (inactive) in test [10]; more than 100 µM in test [17]; > 100 µM (inactive) in test [11]. The GI50 in test [12], in test [13], in test [14], in test [15] and in [16] was > 100 µM (inactive) throughout.

Consider `Cc1cc(NCCCCCCNc2cc(C)nc3cc(N(C)C)ccc23)c2ccc(N(C)C)cc2n1`, for which the GI50 in test [1] was 36.1 µM (inactive); in test [2], > 100 µM (inactive); in test [3], 57.9 µM (inactive); in [4], 49.9 µM (inactive); in [5], 27.7 µM (inactive); in [6], 22.6 µM (inactive). Besides, the GI50 was 28.6 µM (inactive) in [7]; 13.3 µM (inactive) in test [8]; 1.67 µM (inactive) in test [10]; more than 100 µM in test [17]; > 100 µM (inactive) in [11]; > 100 µM (inactive) in test [12]. In addition, the GI50 in test [13] was 28.2 µM (inactive); in [14], 18.2 µM (inactive); in test [15] it was 9.2 µM (inactive); in test [16] it was 31 µM (inactive).

On to `CC(=O)C1=C(O)C2C3c4c[nH]c5cccc(c45)CC3C(C)(C)N2C1=O` (stereo not drawn), for which the GI50 was 34.4 µM (inactive) in [1]; 20.6 µM (inactive) in test [2]; 27.4 µM (inactive) in [3]; > 100 µM (inactive) in test [4]; > 100 µM (inactive) in test [5]; > 100 µM (inactive) in test [6]. Further, the GI50 in test [7] is 30.3 µM (inactive); in test [8], 10.8 µM (inactive); in [9], > 100 µM (inactive); in [10], 15.4 µM (inactive); in [17], 34.6 µM; in [11], 46.5 µM (inactive). In addition, the GI50 in test [12] was 20.1 µM (inactive); in test [13], 24.3 µM (inactive); in [14], 11.7 µM (inactive); in [15] it was 44.1 µM (inactive).

On to `CC1=CC[C@@H](C(C)(C)O)C[C@@H]1O`, for which the GI50 in [1], in test [2], in test [3], in [4], in test [5] and in test [6] was > 5000 µM (inactive) throughout. Moreover, the GI50 in [7] was > 5000 µM (inactive); in test [8] it was > 5000 µM (inactive); in test [9], > 5000 µM (inactive); in [10] it was > 5000 µM (inactive); in test [17] it was more than 5000 µM; in test [11] it was > 5000 µM (inactive). Besides, the GI50 in [12], in test [13], in test [14], in [15] and in [16] was > 5000 µM (inactive) throughout.

For the compound `COC(=O)c1cc2ccccc2c2nc3ccccc3c(Cl)c12`, the GI50 in test [1], in test [2], in test [3], in test [4], in test [5] and in test [6] was > 100 µM (inactive) each time. Further, the GI50 in test [7] is > 100 µM (inactive); in test [9], > 100 µM (inactive); in test [10], 37.4 µM (inactive); in test [17], more than 100 µM; in test [11] it was > 100 µM (inactive); in [12] it was > 100 µM (inactive). In addition, the GI50 in [13], in test [14], in test [15] and in [16] was > 100 µM (inactive) in each case.

In the case of `[O-]c1c2c(nn1-c1ccccc1)c1ccccc1c[n+]2Cc1ccccc1`, the GI50 was > 100 µM (inactive) in test [1]; > 100 µM (inactive) in test [2]; 47.1 µM (inactive) in [3]; > 100 µM (inactive) in [4]; > 100 µM (inactive) in test [5]; 78 µM (inactive) in [6]. The GI50 in test [7] is > 100 µM (inactive); in test [8] it was > 100 µM (inactive); in [9], > 100 µM (inactive); in test [10], > 100 µM (inactive); in [17], more than 100 µM; in test [11] it was > 100 µM (inactive). Besides, the GI50 in [13], in test [14], in test [15] and in [16] was > 100 µM (inactive) throughout.
